Source: patent US9669029B2, “Heteroaromatic phenylimidazole derivatives as PDE10A enzyme inhibitors” (H. Lundbeck A/S, priority 2009, dated 2017)

Columns and labels:
PDE10A = PDE10A (Homo sapiens (Human), UniProt Q9Y233); assay: PDE10A inhibition assay; assay type: biochemical
Protocol: Active PDE10A enzyme is prepared in a number of ways for use in PDE assays (Loughney, K. et al. Gene 1999, 234, 109-117; Fujishige, K. et al. Eur J Biochem. 1999, 266, 1118-1127 and Soderling, S. et al. Proc. Natl. Acad. Sci. 1999, 96, 7071-7076). PDE10A can be expressed as full-length proteins or as truncated proteins, as long as they express the catalytic domain. PDE10A can be prepared in different cell types, for example insect cells or E. coli. […]
A PDE10A assay may for example, be performed as follows: The assay is performed in 60 uL samples containing a fixed amount of the relevant PDE enzyme (sufficient to convert 20-25% of the cyclic nucleotide substrate), a buffer (50 mM HEPES7.6; 10 mM MgCl2; 0.02% Tween20), 0.1 mg/ml BSA, 225 pCi of ^3H-labelled cyclic nucleotide substrate, tritium labeled cAMP to a final concentration of 5 nM and varying amounts of inhibitors. […] The beads are allowed to settle for one hr in the dark before the plates are counted in a Wallac 1450 Microbeta counter. The measured signal can be converted to activity relative to an uninhibited control (100%) and IC50 values can be calculated using the Xlfit extension to EXCEL.

rats = settings: cited from earlier work

PDE10A, sequence (Q9Y233 716-1055): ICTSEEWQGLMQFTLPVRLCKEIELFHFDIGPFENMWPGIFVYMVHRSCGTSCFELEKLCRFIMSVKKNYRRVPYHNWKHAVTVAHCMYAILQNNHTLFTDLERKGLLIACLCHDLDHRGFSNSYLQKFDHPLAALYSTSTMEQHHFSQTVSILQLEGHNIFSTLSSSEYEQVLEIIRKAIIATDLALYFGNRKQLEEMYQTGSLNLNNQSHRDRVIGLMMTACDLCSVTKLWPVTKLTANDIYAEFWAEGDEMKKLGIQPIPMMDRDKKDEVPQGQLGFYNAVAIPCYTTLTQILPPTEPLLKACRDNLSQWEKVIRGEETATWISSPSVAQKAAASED

| SMILES | IC50 (PDE10A) | catalepsy on its own (rats; papaverine alone) | effect on the cataleptic effect of the D2 receptor antagonist haloperidol (rats; with haloperidol) |
| --- | --- | --- | --- |
| Cc1cccn2nc(CCc3nc(-c4cccnc4)cn3C)nc12 [8-Methyl-2-[2-(1-methyl-4-pyridin-3-yl-1H-imidazol-2-yl)-ethyl]-[1,2,4]triazolo[1,5-a]pyridine] | 75 nM |  |  |
| COc1cccn2nc(/C=C/c3nc(-c4ccc(C)o4)cn3C)nc12 [8-Methoxy-2-{(E)-2-[1-methyl-4-(5-methyl-furan-2-yl)-1H-imidazol-2-yl]-vinyl}-[1,2,4]triazolo[1,5-a]pyridine] | 140 nM |  |  |
| COc1ccc(Cc2nccc3cc(OC)c(OC)cc23)cc1OC [Papaverine, papaverine] |  | did not cause catalepsy | potentiated |
